Measurements published in patent US20210045385A1, “PYRIDAZINONE-SUBSTITUTED KETOXIMES AS HERBICIDES” (FMC Corporation, priority 2018, published 2021).

Legend:
Type in all cases: in vivo
[1] = tested on: foxtail, giant (giant foxtail, Setaria faberi); test: Test C postemergence, visual plant response rating
How it was run: (§1)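 Seeds sown in a loam–sand blend got a directed preemergence soil spray; postemergence plants (2–10 cm, one- to two-leaf stage) were sprayed with compound in a non-phytotoxic solvent plus surfactant. Injury was scored visually against untreated controls after about 10 d in a greenhouse on a 0–100 scale (100 = complete control).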

corn (Zea mays) = test: Test C postemergence, visual plant response rating
How it was run: as §1

[2] = tested on: barnyardgrass (Echinochloa crus-galli); test: Test C postemergence, visual plant response rating
How it was run: as §1

[3] = tested on: pigweed (Amaranthus retroflexus); test: Test C postemergence, visual plant response rating
How it was run: as §1

kochia (Bassia scoparia) [4] = test: Test C postemergence, visual plant response rating
How it was run: as §1

[5] = tested on: Italian ryegrass (Lolium mutiflorum); test: Test C postemergence, visual plant response rating
How it was run: as §1

[6] = tested on: blackgrass (Alopecurus myosuroides); test: Test C postemergence, visual plant response rating
How it was run: as §1

[7] = tested on: galium (catchweed bedstraw, Galium aparine); test: Test C postemergence, visual plant response rating
How it was run: as §1

[8] = tested on: wheat (Triticum aestivum); test: Test C postemergence, visual plant response rating
How it was run: as §1

[9] = tested on: ragweed (common ragweed, Ambrosia artemisiifolia); test: Test C postemergence, visual plant response rating
How it was run: as §1

[10] = tested on: foxtail, giant (giant foxtail, Setaria faberi); test: Test C preemergence, visual plant response rating
How it was run: as §1

[11] = tested on: barnyardgrass (Echinochloa crus-galli); test: Test C preemergence, visual plant response rating
How it was run: as §1

[12] = tested on: pigweed (Amaranthus retroflexus); test: Test C preemergence, visual plant response rating
How it was run: as §1

kochia (Bassia scoparia) [13] = test: Test C preemergence, visual plant response rating
How it was run: as §1

[14] = tested on: Italian ryegrass (Lolium mutiflorum); test: Test C preemergence, visual plant response rating
How it was run: as §1

[15] = tested on: ragweed (common ragweed, Ambrosia artemisiifolia); test: Test C preemergence, visual plant response rating
How it was run: as §1

rice (Oryza sativa) = test: Test D flooded paddy test, visual plant response rating; conditions: 250 g ai/ha, scale 0 to 100 (0 no effect, 100 complete control), 13 to 15 d
How it was run: (§2)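 Plants grown to the 2-leaf stage; pots flooded to 3 cm above soil and compound applied directly into paddy water, depth held throughout. Kept in greenhouse 13 to 15 d, then rated visually against untreated controls on a 0–100 scale (0 no effect, 100 complete control).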

[16] = tested on: sedge umbrella (small-flower umbrella sedge, Cyperus difformis); test: as above; conditions: 250 g ai/ha, scale 0 to 100 (0 no effect, 100 complete control), 13 to 15 d
How it was run: as §2

[17] = tested on: barnyardgrass (Echinochloa crus-galli); test: as above; conditions: 250 g ai/ha, scale 0 to 100 (0 no effect, 100 complete control), 13 to 15 d
How it was run: as §2

[18] = tested on: duck salad (Heteranthera limosa); test: as above; conditions: 250 g ai/ha, scale 0 to 100 (0 no effect, 100 complete control), 13 to 15 d
How it was run: as §2

[19] = Test C, postemergence, 125 g ai/ha
[20] = Test C, 31 g ai/ha, 0 is no effect, 100 is complete control
[21] = Test C, 125 g ai/ha, 0 is no effect, 100 is complete control

| SMILES | Foxtail, Giant plant response rating (0 to 100 scale) ([1]; Postemergence, 31 g ai/ha) | Foxtail, Giant plant response rating (0 to 100 scale) [1, 19] | Corn plant response rating (0 to 100 scale) (corn (Zea mays); Postemergence, 31 g ai/ha) | Corn plant response rating (0 to 100 scale) (corn (Zea mays); [19]) | Barnyardgrass plant response rating (0 to 100 scale) ([2]; Postemergence, 31 g ai/ha) | Barnyardgrass plant response rating (0 to 100 scale) [2, 19] | Pigweed plant response rating (0 to 100 scale) ([3]; Postemergence, 31 g ai/ha) | Pigweed plant response rating (0 to 100 scale) [3, 19] | Kochia plant response rating (0 to 100 scale) (kochia (Bassia scoparia) [4]; Postemergence, 31 g ai/ha) | Kochia plant response rating (0 to 100 scale) (kochia (Bassia scoparia) [4]; [19]) | Ryegrass, Italian plant response rating (0 to 100 scale) ([5]; Postemergence, 31 g ai/ha) | Ryegrass, Italian plant response rating (0 to 100 scale) [5, 19] | Blackgrass plant response rating (0 to 100 scale) ([6]; Postemergence, 31 g ai/ha) | Blackgrass plant response rating (0 to 100 scale) [6, 19] | Galium plant response rating (0 to 100 scale) ([7]; Postemergence, 31 g ai/ha) | Galium plant response rating (0 to 100 scale) [7, 19] | Wheat plant response rating (0 to 100 scale) ([8]; Postemergence, 31 g ai/ha) | Wheat plant response rating (0 to 100 scale) [8, 19] | Ragweed plant response rating (0 to 100 scale) ([9]; Postemergence, 31 g ai/ha) | Ragweed plant response rating (0 to 100 scale) [9, 19] | other results |
| --- | --- | --- | --- | --- | --- | --- | --- | --- | --- | --- | --- | --- | --- | --- | --- | --- | --- | --- | --- | --- | --- |
| CO/N=C(\c1c(O)c(Cl)nn(C)c1=O)c1ccc(F)c2ccccc12 [Compound 208] | 20 | 60 | 0 | 10 | 30 | 60 | 30 | 40 | 50 | 70 | 30 | 80 | 0 | 30 | 90 | 100 | 0 | 0 | 100 | 100 | Foxtail, Giant plant response rating (0 to 100 scale) [10, 20]: 50; Foxtail, Giant plant response rating (0 to 100 scale) [10, 21]: 90; Barnyardgrass plant response rating (0 to 100 scale) [11, 20]: 0; Barnyardgrass plant response rating (0 to 100 scale) [11, 21]: 80; Pigweed plant response rating (0 to 100 scale) [12, 20]: 40; Pigweed plant response rating (0 to 100 scale) [12, 21]: 100; Kochia plant response rating (0 to 100 scale) (kochia (Bassia scoparia) [13]; [20]): 0; Kochia plant response rating (0 to 100 scale) (kochia (Bassia scoparia) [13]; [21]): 20; Ryegrass, Italian plant response rating (0 to 100 scale) [14, 20]: 10; Ryegrass, Italian plant response rating (0 to 100 scale) [14, 21]: 70; Ragweed plant response rating (0 to 100 scale) [15, 20]: 60; Ragweed plant response rating (0 to 100 scale) [15, 21]: 100; Plant response rating, Rice (Flood) (rice (Oryza sativa)): 0; Plant response rating, Sedge, Umbrella (Flood) [16]: 0; Plant response rating, Barnyardgrass (Flood) [17]: 0; Plant response rating, Ducksalad (Flood) [18]: 0 |
| CCO/N=C(/c1c(O)c(Cl)nn(C)c1=O)c1ccc(F)c2ccccc12 [Compound 211] | 60 | 90 | 30 | 20 | 30 | 70 | 70 | 100 | 50 | 90 | 30 | 80 | 30 | 30 | 100 | 100 | 0 | 40 | 80 | 80 | Foxtail, Giant plant response rating (0 to 100 scale) [10, 20]: 70; Foxtail, Giant plant response rating (0 to 100 scale) [10, 21]: 90; Barnyardgrass plant response rating (0 to 100 scale) [11, 20]: 50; Barnyardgrass plant response rating (0 to 100 scale) [11, 21]: 90; Pigweed plant response rating (0 to 100 scale) [12, 20]: 70; Pigweed plant response rating (0 to 100 scale) [12, 21]: 90; Kochia plant response rating (0 to 100 scale) (kochia (Bassia scoparia) [13]; [20]): 0; Kochia plant response rating (0 to 100 scale) (kochia (Bassia scoparia) [13]; [21]): 60; Ryegrass, Italian plant response rating (0 to 100 scale) [14, 20]: 30; Ryegrass, Italian plant response rating (0 to 100 scale) [14, 21]: 80; Ragweed plant response rating (0 to 100 scale) [15, 20]: 40; Ragweed plant response rating (0 to 100 scale) [15, 21]: 100; Plant response rating, Rice (Flood) (rice (Oryza sativa)): 0; Plant response rating, Sedge, Umbrella (Flood) [16]: 0; Plant response rating, Barnyardgrass (Flood) [17]: 0; Plant response rating, Ducksalad (Flood) [18]: 0 |
| CO/N=C(/c1cc(C)cc(Cl)c1)c1c(O)c(C)nn(C)c1=O [Compound 173] | 30 | 80 | 0 | 20 | 50 | 80 | 70 | 90 | 60 | 90 | 80 | 100 | 20 | 40 | 90 | 100 | 0 | 0 | 80 | 100 | Foxtail, Giant plant response rating (0 to 100 scale) ([10]; 125 g ai/ha): 90; Foxtail, Giant plant response rating (0 to 100 scale) [10, 20]: 40; Barnyardgrass plant response rating (0 to 100 scale) ([11]; 125 g ai/ha): 50; Barnyardgrass plant response rating (0 to 100 scale) [11, 20]: 60; Pigweed plant response rating (0 to 100 scale) ([12]; 125 g ai/ha): 30; Pigweed plant response rating (0 to 100 scale) [12, 20]: 30; Kochia plant response rating (0 to 100 scale) (kochia (Bassia scoparia) [13]; 125 g ai/ha): 80; Kochia plant response rating (0 to 100 scale) (kochia (Bassia scoparia) [13]; [20]): 60; Ryegrass, Italian plant response rating (0 to 100 scale) ([14]; 125 g ai/ha): 100; Ryegrass, Italian plant response rating (0 to 100 scale) [14, 20]: 30; Ragweed plant response rating (0 to 100 scale) ([15]; 125 g ai/ha): 90; Ragweed plant response rating (0 to 100 scale) [15, 20]: 30; Plant response rating, Rice (Flood) (rice (Oryza sativa)): 0; Plant response rating, Sedge, Umbrella (Flood) [16]: 0; Plant response rating, Barnyardgrass (Flood) [17]: 0; Plant response rating, Ducksalad (Flood) [18]: 0 |
